# Earlier results in patent US9084801B2, “Use of an omega-3 lipid-based emulsion following ischemic injury to provide protection and recovery in human organs” (THE TRUSTEES OF COLUMBIA UNIVERSITY IN THE CITY OF NEW YORK, priority 2005, dated 2015).
# What was measured:
# [1] = tested on: adult Sprague-Dawley rats, kainate-induced seizures; settings: intravenous, given before and/or after neurologic insult
# [2] = tested on: adult Sprague-Dawley rats, global ischemia via four vessel occlusion; settings: intravenous, given before and/or after neurologic insult
smiles,measurement,setting,value
CC/C=C\C/C=C\C/C=C\CCCCCCCC(=O)O [α-linolenic acid],protection in kainate-induced seizures,[1],protective
same,protection in global ischemia,[2],protective
